Entries after “also recorded” stand apart in the source; their conditions may differ. Where two headings read alike, the source gives them in different places.
Key:
[1] = test system: rat hind foot kaolin-induced arthritis; assay: Kaolin-induced arthritis test, second experiment, acute phase (volume of the foot at the 8th hour); type: in vivo; details: po, 8 h, Table IXa; for change in vivo at 25 mg/kg / change in vivo at 50 mg/kg / change in vivo at 100 mg/kg: 8th hour, read-out: percentage significant decrease in the volume of the treated foot; for ED50: foot volume, read-out: 50% active dose
Procedure: The […] of 0.05 ml of a sterile 10% strength suspension of kaolin into the metatarsal flexor sheath of the hind foot of a rat initially induces an oedematous reaction. An inflammatory arthritis then forms.
The early oedematous reaction appears from the first hour, and reaches its maximum between the fourth hour and the sixth hour. This is the manifestation of interest. The assessment of the volume of the foot enables the action of substances on the oedematous reaction to be studied. The measurements are carried out using a Giono and Chevilard plethysmometer.
The test products are administered orally (stomach tube) one hour before the injection of the kaolin.
In a second experiment, a more elaborate study was performed in order to ascertain the effect of the products, on the one hand on the acute phase of the inflammatory reaction (measured by the volume of the foot at the 8th hour), and on the other hand on the chronic phase (activity measured by the weight of the foot at the 12th hour).
As in the previous experiment, ketoprofen was used as the comparative product:
The results are expressed as a percentage significant decrease in the volume of the treated foot compared with the controls.

[2] = test system: rat hind foot carragheenin-induced oedema; assay: Carragheenin-induced oedema test; type: in vivo; details: 3 h, read-out: percentage inhibition of the inflammation; for change in vivo at 25 mg/kg: 25 mg/kg oral; for change in vivo at 50 mg/kg: 50 mg/kg oral; for change in vivo at 100 mg/kg: 100 mg/kg oral
[3] = test system: foreign-body (sponge) granuloma in rats; assay: Experimental granuloma induced by foreign body, histological study; type: in vivo, Wistar rats; details: for histological study of the granuloma (inflammatory connective / granulation tissue): second experiment, day 8, Table XIa; for histological study of the granuloma: 8 days, Table XI
[4] = test system: foreign-body (sponge) granuloma in rats; assay: Experimental granuloma induced by foreign body, weight of the granulomas; type: in vivo, Wistar rats; details: Rattus norvegicus, po, 240 h, 10 days after implantation, Table XIb, read-out: decrease in the weight of the granulomas
Procedure: This test consists in studying the subacute cellular phase which is developed in the 8 days which follow the implantation of a foreign body, a sponge of non-resorbable plastic, in the dorsal subcutaneous connective tissue in rats.
The animals used are Wistar rats weighing 120-140 g and of the same origin, maintained under the same conditions of housing throughout the treatment (8 days).
The compounds of the invention are administered orally, in a gum suspension, in the morning in a fasted state, using an oesophageal tube.
In this experiment, on the one hand a histological study of the granulomas is performed by sampling on day 8 (results recorded in Table XIa), and on the other hand a study of the weight of the granulomas was performed 10 days after the implantation (results recorded in Table XIb).

thromboxane synthetase [5] = assay: TXB2 production in human platelet suspension (thromboxane synthetase); type: cell-based; details: human platelets, arachidonic acid 5 μg/ml, 37° C., read-out: IC50, inhibition of the production of TXB2
Procedure: The platelets are incubated with arachidonic acid (5 μg/ml) in the presence of increasing doses of test products (10^-6l M to 5×10^-5 M). Platelets stimulated by arachidonic acid (AA) manufacture a large amount of thromboxane A2 (TXA2), which can be measured radioimmunologically in the form of a stable metabolite TXB2.
The assay of the amount of TXB2 in the medium is performed after a 1- to 15- minute incubation at 37° C., the measurements being made in comparison with a control suspension which has not been incubated with the test products.
Results: These are expressed as IC50, that is to say as the concentration of the test product which permits 50% inhibition of the production of TXB2.

thromboxane synthetase [6] = assay: TXB2 production in human glomeruli (renal preparation model); type: cell-based; details: arachidonic acid 5 ug/ml
Procedure: (§1) Human glomeruli synthesize both thromboxanes, via thromboxane synthetase, and prostaglandins, via prostacyclin synthetase. The experiment consists in stimulating glomerular cells with arachidonic acid (5 ug/ml) and in assaying radioimmunologically the amount of thromboxane B2 (TXB2) and prostacyclin (PGI2) produced in the presence of increasing concentrations of test products (10^-6 M to 5×10^-5 M).
(§2) As for the previous model, the results are expressed as IC50 in comparison with a control suspension.

prostacyclin synthetase = assay: PGI2 production in human glomeruli (renal preparation model); type: cell-based; details: arachidonic acid 5 ug/ml
Procedure: as §1, §2

IC50 (thromboxane synthetase [5]) [µM]	IC50 (thromboxane synthetase [6]) [µM]	IC50 (prostacyclin synthetase) [µM]	SMILES	change in vivo at 25 mg/kg [1] [%]	change in vivo at 50 mg/kg [1] [%]	change in vivo at 100 mg/kg [1] [%]	ED50 [1] [mg/kg]	change in vivo at 25 mg/kg ([2]; second experiment, Table Xa) [%]	change in vivo at 50 mg/kg ([2]; second experiment, Table Xa) [%]	change in vivo at 100 mg/kg ([2]; second experiment, Table Xa) [%]	histological study of the granuloma (inflammatory connective / granulation tissue) [3]	change in vivo at 25 mg/kg [4] [%]	change in vivo at 50 mg/kg [4] [%]	change in vivo at 100 mg/kg [4] [%]	change in vivo at 25 mg/kg ([2]; first experiment, Table X) [%]	change in vivo at 50 mg/kg ([2]; first experiment, Table X) [%]	change in vivo at 100 mg/kg ([2]; first experiment, Table X) [%]	histological study of the granuloma ([3]; 50 mg/kg oral)	histological study of the granuloma ([3]; 100 mg/kg oral)
7.8	3.2	50	O=C(O)CCCCCCCCCCNS(=O)(=O)c1ccc(Cl)cc1C(O)c1ccccc1Cl (stereo not drawn) [Compound 1796]	-50 ± 5	-55 ± 5	-60 ± 5	25	-45	-48	-55	only slightly inflammatory	-50	-55	-60					
5	4.4	> 50	O=C(O)CCCCCCCCCCNS(=O)(=O)c1ccc(Cl)cc1Cc1ccccc1Cl [Compound 1797]	-50 ± 5	-55 ± 5	-60 ± 5	25	-45	-48	-55	Granuloma poorly developed; also recorded: slightly inflammatory	-50	-55	-60					
6.2	2.6	> 50	O=C(O)CCCCCCCCCCCNS(=O)(=O)c1ccc(Cl)c(C(=O)c2ccccc2)c1 [Compound 1736, 12-(3-benzoyl-4-chlorobenzenesulphonamido)dodecanoic acid]		-50 ± 5	-55 ± 5	50	-45	-48	-55	Very distinct slowing in the formation	-48	-52	-55					

SMILES	IC50 (thromboxane synthetase [5]) [µM]	IC50 (thromboxane synthetase [6]) [µM]	IC50 (prostacyclin synthetase) [µM]	change in vivo at 25 mg/kg [1] [%]	change in vivo at 50 mg/kg [1] [%]	change in vivo at 100 mg/kg [1] [%]	ED50 [1] [mg/kg]	change in vivo at 25 mg/kg ([2]; second experiment, Table Xa) [%]	change in vivo at 50 mg/kg ([2]; second experiment, Table Xa) [%]	change in vivo at 100 mg/kg ([2]; second experiment, Table Xa) [%]	histological study of the granuloma (inflammatory connective / granulation tissue) [3]	change in vivo at 25 mg/kg [4] [%]	change in vivo at 50 mg/kg [4] [%]	change in vivo at 100 mg/kg [4] [%]	change in vivo at 25 mg/kg ([2]; first experiment, Table X) [%]	change in vivo at 50 mg/kg ([2]; first experiment, Table X) [%]	change in vivo at 100 mg/kg ([2]; first experiment, Table X) [%]	histological study of the granuloma ([3]; 50 mg/kg oral)	histological study of the granuloma ([3]; 100 mg/kg oral)
O=C(O)CCCCCCCCCCNS(=O)(=O)c1ccc(Cl)cc1C(=O)c1ccccc1 [Compound 1572, 11-(2-benzoyl-4-chlorobenzenesulphonamido)undecanoic acid]	12	7	100												-18	-25	-49	anti-inflammatory activity is exhibited	distinct
O=C(O)CCCCCCCCCCNS(=O)(=O)c1ccc(Cl)cc1C(=O)c1ccccc1Cl [Compound 1574, 11-[2-(2-chlorobenzoyl)-4-chlorobenzenesulphonamido]undecanoic acid]	8	5	100	-60 ± 6	-65 ± 6	-68 ± 5	25	-40	-43	-45	very distinct rarefaction	-48	-50	-55					
